# Values quoted from earlier work in patent US20020072062A1, “Chloramphenicol biosynthetic pathway and gene cluster” (Diversa Corporation, priority 1999, published 2002).
# Like-named read-outs stand apart in the source and are kept apart here.
# Key:
# [1] = system: Cm-sensitive Micrococcus luteus; settings: against Cm-sensitive Micrococcus luteus; metabolite of Cm from S. lividans M252 pJV4 transformants
# [2] = system: Streptomyces venezuelae ISP5230
Structure (SMILES),inhibitory activity [1],sulfanilamide resistance ([2]; before replacement of chromosomal pabAB) [micrograms mL-1],sulfanilamide resistance ([2]; chromosomal pabAB replaced with copy disrupted by apramycin resistance gene) [micrograms mL-1]
O=C(NC(COP(=O)(O)O)C(O)c1ccc([N+](=O)[O-])cc1)C(Cl)Cl (stereo not drawn) [3′-O-phospho-Cm],negligible inhibitory activity,,
Nc1ccc(S(N)(=O)=O)cc1 [sulfanilamide],,25,5
